Assay results from patent US6596863B2, “Medical composition containing nitroetheneamine Derivative or salt there of as active constituent” (Ishihara Sangyo Kaisha, Ltd., priority 1998, dated 2003).
Read-outs that look alike come from different tables or passages of the source.

Legend:
[1] = target: T1, human MMP-9 (gelatinase B) (Homo sapiens, UniProt P14780); assay: Inhibition activity against human MMP-9 (gelatinase B), fluorescent peptide substrate; assay type: biochemical
T1 construct: endogenous in cells; host or cells: HT1080 human fibrosarcoma cells (ATCC CCL-121), PMA-stimulated; enzyme purified from the culture supernatant
Protocol: Human MMP-9 (gelatinase B) was purified by the following method from a culture supernatant of HT1080 cells (human fibrosarcoma).
2.5×10^6 HT1080 cells (ATCC CCL-121, purchased from Dainippon Seiyaku) were inoculated to a tissue culture dish (Code No. 3020-100, manufactured by Iwaki Glass Co., Ltd.) having a diameter of 10 cm and containing 10 ml of Dulbecco's Modified Eagle Medium (DME, No. D-5648, manufactured by Sigma Co.) containing 10% fetal bovine serum (FBS: REHATUIN™, Code No. 1020-90, manufactured by Intergen Co.) and cultured for 72 hours at 37° C. in an atmosphere comprising 5% of CO2 and 95% of air (Carbon Dioxide Incubator LNA-122D Model, manufactured by Tabai Co.). Then, the medium was changed to 10 ml of a DME culture medium containing no FBS, and phorbol 12-myristate 13-acetate (PMA, code No. 163-114851, manufactured by Wako Pure Chemical Industries, Ltd.) was added so that the final concentration became 10 ng/ml. Under the same conditions, the culturing was carried out for further 20 hours, whereupon the culture supernatant was collected and subjected to cool centrifugation at 4° C. for 5 minutes (cool centrifugal separator, manufactured by Hitachi) to remove cell fragments.
The pH of a conditioned medium (50 ml) containing MMP-9, thus prepared, was adjusted to 8.0 with 0.2N NaOH. […] Namely, the above-mentioned conditioned medium was passed through DEAE-Sephacel (manufactured by Pharmacia, gel volume: about 35 ml) preliminarily equilibrated with 50 mM Tris-HCl, pH 8.0 (A buffer), and a non-adsorption fraction was collected. Then, it was added to Dye Matrix Gel Green A (manufactured by Amicon Co., gel volume: about 6 ml) preliminarily equilibrated with 50 mM Tris-HCl, pH 7.5/10 MM CaCl2/0.05% Brij 35/0.02% NaN3 (B buffer) and thoroughly washed with the same buffer, whereupon the adsorbed enzyme was eluted with a 1M NaCl-containing B buffer. About 7.5 ml of the eluted fraction was diluted twice with the B buffer and added to Gelatin-Sepharose 4B (manufactured by Pharmacia, gel volume: about 6 ml) preliminarily equilibrated with a 0.5 M NaCl-containing B buffer. It was thoroughly washed with a 0.5M NaCl-containing B buffer, and eluted with the B buffer containing 10% of dimethylsulfoxide (DMSO) and 0.5 M of NaCl. 5.5 ml of the eluted fraction was dialyzed against a 0.1 M NaCl-containing B buffer to obtain 5.2 ml of a purified enzyme solution. The purified MMP-9 standard product was confirmed to have a single band of 92 kDa by a protein staining by SDS electrophoresis, and further, it was confirmed to have an adequate gelatin decomposing activity by gelatinzymography (carried out in accordance with a method by Howard E. W. et al; Journal Biological Chemistry, Vol. 266, 13064-13069, 1991) and to have an adequate substrate decomposing activity by the after-mentioned measurement employing a fluorescent peptide substrate specific to MMP.
The inhibition activity against human MMP-9 was measured by the following method in accordance with the method by C. G. Knight et al (FEBS Letters, Vol, 296, 263-266, 1992) employing a fluorescent peptide substrate (7-methoxycoumarin-4-yl)Acetyl-Pro-Leu-Gly-Leu-(3-[2,4-dinitrophenyl]—Ala—Arg-NH2, Code 3163-VC, manufactured by Peptide Institute, Inc.
Further, as the case requires, commercially available human MMP-9 purified enzyme (No. YU-18003, manufactured by Kabushiki Kaisha Yagai Chuo Kenkyusho; used in a final concentration of from 0.0125 to 0.025 unit/ml, No. CC079, manufactured by Chemicon International, Inc.; used in a final concentration of 0.2 μg/ml) was used for the tests. […]

[2] = compounds of the formula (I), 1st measurement, read-out: MMP-9 inhibition activities IC50, 1st
[3] = compounds of the formula (I), 2nd measurement, read-out: MMP-9 inhibition activities IC50, 2nd
[4] = compounds of the formula (I), average of 1st and 2nd (or single measurement), read-out: MMP-9 inhibition activities IC50, Average
[5] = intermediates, compounds of the formula (IV), 1st measurement, read-out: MMP-9 inhibition activities IC50, 1st
[6] = intermediates, compounds of the formula (IV), 2nd measurement, read-out: MMP-9 inhibition activities IC50, 2nd
[7] = intermediates, compounds of the formula (IV), average of 1st and 2nd (or single measurement), read-out: MMP-9 inhibition activities IC50, Average

T1 sequence (P14780 107-707 limits assumed): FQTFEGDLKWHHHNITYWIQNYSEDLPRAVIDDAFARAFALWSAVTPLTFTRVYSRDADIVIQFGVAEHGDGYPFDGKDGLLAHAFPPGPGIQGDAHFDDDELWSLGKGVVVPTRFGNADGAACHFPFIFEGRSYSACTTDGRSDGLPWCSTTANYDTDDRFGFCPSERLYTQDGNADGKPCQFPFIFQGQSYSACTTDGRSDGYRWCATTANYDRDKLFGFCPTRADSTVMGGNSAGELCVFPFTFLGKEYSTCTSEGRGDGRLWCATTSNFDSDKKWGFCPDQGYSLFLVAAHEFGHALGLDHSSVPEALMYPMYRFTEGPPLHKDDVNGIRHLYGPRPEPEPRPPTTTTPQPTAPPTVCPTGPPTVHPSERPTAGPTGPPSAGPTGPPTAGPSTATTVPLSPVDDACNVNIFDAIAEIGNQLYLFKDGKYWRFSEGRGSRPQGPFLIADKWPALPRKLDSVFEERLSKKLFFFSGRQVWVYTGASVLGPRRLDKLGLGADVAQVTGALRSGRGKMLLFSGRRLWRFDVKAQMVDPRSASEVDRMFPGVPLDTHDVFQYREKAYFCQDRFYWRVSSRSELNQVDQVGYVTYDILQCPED

| SMILES | melting point | IC50 [1, 2] [µM] | IC50 [1, 3] [µM] | IC50 [1, 4] [µM] | IC50 [1, 5] [µM] | IC50 [1, 6] [µM] | IC50 [1, 7] [µM] |
| --- | --- | --- | --- | --- | --- | --- | --- |
| CNC(=C[N+](=O)[O-])NNc1cc(C(F)(F)F)ccn1 [compound 94] | 174 to 175 °C (dec.) | 4.2 | 7 | 5.6 |  |  |  |
| CNC(=C[N+](=O)[O-])NNc1cccc(C)c1 [Compound No. 15] | 189 °C (dec.) | 46.8 | 52.7 | 49.8 |  |  |  |
| C=C1C(C)=NN/C(=C\[N+](=O)[O-])N1c1ccccc1 [compound 155] |  | 24.3 | 43.5 | 33.9 |  |  |  |
| NC(=C[N+](=O)[O-])NNc1cc(C(F)(F)F)cc(Cl)n1 [compound 103] | 201 to 202 °C (dec.) | 8.9 | 10.7 | 9.8 |  |  |  |
| NNC(=C[N+](=O)[O-])Nc1cccnc1 [compound 50] | 175 °C (dec.) | 25.7 | 23 | 24.3 |  |  |  |
| NNC(=C[N+](=O)[O-])NC1Cc2ccccc2C1 [compound 112] | 193 to 197 °C (dec.) | 38.2 | 30.9 | 34.6 |  |  |  |
| COc1ccc(NC(=C[N+](=O)[O-])SC)cn1 [Intermediate 49] | 134 to 137 °C |  |  |  | 29.5 | 29 | 29.3 |
| CNC(=C[N+](=O)[O-])NNc1ncc(C(F)(F)F)cc1Cl [compound 21] | 168 °C (dec.) | 11.7 | 18.1 | 14.9 |  |  |  |
| CCNC(=C[N+](=O)[O-])NN [compound 117] | 93.5 to 98.5 °C | 30 | 39.3 | 34.7 |  |  |  |
| CNC(=C[N+](=O)[O-])NNc1cc(C(F)(F)F)cc(C(F)(F)F)n1 [compound 44] | 192 to 193 °C (dec.) | 19.6 | 26.8 | 23.2 |  |  |  |
| NNC(=C[N+](=O)[O-])NCc1ccncc1 [compound 55] | 176 °C (dec.) | 25.3 | 30 | 27.7 |  |  |  |
| CNC(=C[N+](=O)[O-])NNc1cc(C(F)(F)F)cc(C)n1 [compound 27] | 161 to 162 °C | 26.6 | 24.5 | 25.6 |  |  |  |
| CNC(=C[N+](=O)[O-])NN=C(C)c1cccs1 [compound 32] | 165 °C (dec.) | 26.7 | 24 | 25.4 |  |  |  |
| NNC(=C[N+](=O)[O-])NCc1ccc(C(F)(F)F)cc1 [compound 78] | 162 °C | 44.1 | 36 | 40.1 |  |  |  |
| CNC(=C[N+](=O)[O-])NNc1cc(C(F)(F)F)cc(OCCc2ccccn2)n1 [compound 124] | 181 °C (dec.) | 16.1 | 18.6 | 17.4 |  |  |  |
| CNC(=C[N+](=O)[O-])NN=CC=Cc1ccccc1 [compound 144] | 180 °C (dec.) | 4.8 | 14.9 | 9.9 |  |  |  |
| CSC(=C[N+](=O)[O-])Nc1ccc2c(c1)OCO2 [Intermediate 51] | 153 to 155 °C |  |  |  | 31.6 | 26 | 28.8 |
| COc1ccccc1NC(=C[N+](=O)[O-])NN [compound 57] | 135.5 to 136 °C | 38.7 | 35.1 | 36.6 |  |  |  |
| CCNC(=C[N+](=O)[O-])NNc1cc(C(F)(F)F)cc(Cl)n1 [compound 102] | 206 °C (dec.) | 18.2 | 14 | 16.1 |  |  |  |
| CSC(=C[N+](=O)[O-])NS(C)(=O)=O [Intermediate 57, N-(1-(methylthio)-2-nitroethenyl)methanesulfonamide] |  |  |  |  | 49.4 | 37.5 | 43.5 |
| CNC(=C[N+](=O)[O-])NN(C)C [compound 83] |  | 66.2 | 14.2 | 36 |  |  |  |

| SMILES | melting point | IC50 [1, 2] [µM] | IC50 [1, 3] [µM] | IC50 [1, 4] [µM] | IC50 [1, 5] [µM] | IC50 [1, 6] [µM] | IC50 [1, 7] [µM] |
| --- | --- | --- | --- | --- | --- | --- | --- |
| CNC(=C[N+](=O)[O-])NN(C)c1ncc(C(F)(F)F)cc1Cl [Compound No. 35, N-methyl-1-(2-methyl-2-(3-chloro-5-trifluoromethyl-2-pyridyl)hydrazino)-2-nitroetheneamine] |  | 14.6 | 22.1 | 18.4 |  |  |  |
| CONC(=C[N+](=O)[O-])SC [Intermediate 63] |  |  |  |  | 4.3 |  | 4.3 |
| CSC(=C[N+](=O)[O-])NS(C)(=O)=O (single isomer, unassigned) [Intermediate 64] |  |  |  |  | 4.4 |  | 4.4 |
| CNC(=C[N+](=O)[O-])NNc1ccccc1 [compound 84] |  | 43.4 | 14.2 | 28.8 |  |  |  |
| CSC(=C[N+](=O)[O-])Nc1ccc(Cl)cc1 [Intermediate 19] |  |  |  |  | 29.9 | 35.6 | 32.8 |
| CNC(=C[N+](=O)[O-])SC [Intermediate 5] |  |  |  |  | 26.9 |  | 26.9 |
| CNNC(=C[N+](=O)[O-])NC [compound 82] |  | 52.9 | 19 | 36 |  |  |  |
| NNC(=C[N+](=O)[O-])Nc1ccc(Cl)cc1 [compound 51] |  | 27.3 | 32.1 | 29.7 |  |  |  |
| CCS(=O)(=O)NC(=C[N+](=O)[O-])SC [Intermediate 59] |  |  |  |  | 11.4 |  | 11.4 |
| CCNC(=C[N+](=O)[O-])SC [Intermediate 6] |  |  |  |  | 33 |  | 33 |
| CS(=O)(=O)NC(=C[N+](=O)[O-])NN1CCOCC1 [Compound No. 163, N-(1-(N-morpholino)amino-2-nitroethenyl)methanesulfonamide] |  | 9.2 |  | 9.2 |  |  |  |
| CC(C)NC(=C[N+](=O)[O-])NN [compound 88] |  | 37.7 | 57.5 | 47.6 |  |  |  |
| O=[N+]([O-])C=C(NNc1ccccc1)Nc1ccccc1 [Compound No. 2] |  | 45.1 | 24.7 | 34.9 |  |  |  |
| CSC(=C[N+](=O)[O-])NC(C)C [Intermediate 10] |  |  |  |  | 26.9 | 46.6 | 36.8 |
| CCCCNC(=C[N+](=O)[O-])NN [compound 85] |  | 52.8 | 41.1 | 47 |  |  |  |
| CNC(=C[N+](=O)[O-])NN [compound 93] |  | 48.3 | 44.8 | 46.6 |  |  |  |
| CNC(=C[N+](=O)[O-])NNc1cc(C(F)(F)F)ncn1 [compound 97] |  | 45.7 | 35.3 | 40.5 |  |  |  |
| CCCCCCCCNC(=C[N+](=O)[O-])NN [compound 46] |  | 36.2 | 34.8 | 35.5 |  |  |  |
| CNC(=C[N+](=O)[O-])NN=Cc1ccccn1 [Compound No. 29, 2-pyridinecarbaldehyde 1-methylamino-2-nitroethenylhydrazone] |  | 30.8 | 24.5 | 27.7 |  |  |  |
| CNC(=C[N+](=O)[O-])NNS(C)(=O)=O [compound 108] |  | 15 | 35 | 25 |  |  |  |
